Structures can show the parent of a compound that is named as a salt.
Columns and labels:
[1] = target: T1, human recombinant trypsin (rh-trypsin) (Homo sapiens, UniProt P07477); assay: Trypsin inhibitory activity, human recombinant trypsin, BZiPAR fluorescent substrate; format: biochemical; conditions: 30 min at room temperature, read-out: r-h Trypsin inhibitory activity (IC50)
T1 construct: purchased Wako Pure Chemical Industries, Ltd. 206-17171
Procedure: (§1) 1. Confirmation of Trypsin Inhibitory Activity in Humans and Mice In the experiment, human recombinant trypsin (rh-trypsin; manufactured by Wako Pure Chemical Industries, Ltd.), cat. #206-17171) and mouse trypsin (m-trypsin; purified from the mouse small intestine contents by the present inventors) were used. The method for purifying m-trypsin from the contents of the mouse small intestine is shown below. The compound was dissolved in dimethyl sulfoxide (DMSO), and diluted to an arbitrary concentration (A). A was 100-fold diluted with a buffer (0.1 M Tris (pH 8.0), 0.15 M NaCl, 10 mM CaCl2, 0.05% Brij35) (B). The rh-trypsin was diluted with a buffer to 0.088 μg/mL, and for the m-trypsin, the purified fraction liquid was 50-fold diluted with the buffer (C). […] A BZiPAR solution (Rhodamine Reference Substrate) which is substrate for the trypsin enzyme was diluted with the buffer to […] (D). 5 μL of B, 5 μL of C, and 10 μL of D were added to a 384-well plate, and incubated at room temperature for 30 minutes. Fluorescent signals were detected at a maximum excitement (Ex)/fluorescent wavelength (Em)=497 nm/520 nm using a Tecan Safire Fluorometer. […] Based on the obtained inhibitory rates, the trypsin inhibitory activities (IC50 values, nM) were calculated from the non-linear regression.

ICR mice = assay: Test of increase in fecal protein concentration using mice; format: in vivo, mouse; conditions: 5 mg/kg oral, male ICR mice, feces collected 3 to 9 hours after feeding started, control group = 1; for response vs control in vivo at 5 mg/kg: Mus musculus, po, 9 h, read-out: Fecal protein, Folds (vs. control)
Procedure: 2. Test of Increase in Fecal Protein Concentration Using Mice
For the experiment, 6-week old male ICR mice were used. The experiment was carried out in five mice per group. After fasting the mice for 15 hours, the control group was forcibly orally administered with a 0.5% methyl cellulose (MC) solution, and the test drug group was forcibly orally administered (5 mg/kg) with a solution or suspension obtained by dissolving or suspending the compound in the 0.5% MC solution. The fasting was stopped immediately thereafter, free feeding (CE-2) was started, and then the feces were collected from after 3 hours to after 9 hours, and weighed. All of the obtained feces were suspended in 6 mL of distilled water, and centrifuged at 1,940×g for 10 minutes. The protein concentration in the obtained supernatant was measured by a Bradford method, and the amount of the protein in 1 g of feces was calculated by dividing the protein concentration in the feces by the total weight of feces. Further, the efficacy was investigated from the ratio to the control group. For the compounds that were evaluated multiple times, the average values were calculated.
The results of the activities with an increase in Fecal Protein, assuming a value for the control group as 1, are shown in Table 2.

[2] = tested on: T2, mouse trypsin (m-trypsin); assay: Trypsin inhibitory activity, mouse trypsin purified from small intestine contents, BZiPAR fluorescent substrate; format: biochemical; conditions: 30 min at room temperature
T2 construct: mouse trypsin (m-trypsin)
Source text: 1. Confirmation of Trypsin Inhibitory Activity in Humans and Mice
In the experiment, human recombinant trypsin (rh-trypsin; manufactured by Wako Pure Chemical Industries, Ltd.), cat. #206-17171) and mouse trypsin (m-trypsin; purified from the mouse small intestine contents by the present inventors) were used. The method for purifying m-trypsin from the contents of the mouse small intestine is shown below.
The small intestine contents and the gastrointestinal tract obtained from 10 mice were homogenized in phosphate buffer saline (PBS) using Polytron, and subjected to centrifugation several times at 15,000×g for 10 minutes. The supernatant was mixed at 4° C. for 16 hours with a Benzamidine Sepharose 4 Fast Flow Resin (GE Healthcare: #17-5123-10). After washing the resin with PBS, m-trypsin was eluted with a glycine buffer (pH 3.0) to carry out purification. It was confirmed by Western blot analysis that the obtained purified fraction was recognized as an Anti-mouse Trypsin Antibody (Santa Cruz Biotechnology, Inc.: sc-67388). The method for measuring the trypsin inhibiting activity is shown below.
as §1, with “The” for “1. Confirmation of Trypsin Inhibitory Activity in Humans and Mice In the experiment, human recombinant trypsin (rh-trypsin; manufactured by Wako Pure Chemical Industries, Ltd.), cat. #206-17171) and mouse trypsin (m-trypsin; purified from the mouse small intestine contents by the present inventors) were used. The method for purifying m-trypsin from the contents of the mouse small intestine is shown below. The”

IC50 [1] [nM] | IC50 [2] [nM] | Compound | response vs control in vivo at 5 mg/kg (ICR mice) [%] | Fecal protein, Folds (vs. control) (ICR mice)
0.34 | 0.44 | N=C(N)Nc1ccc(C(=O)Oc2ccc3c(c2)CCCC3CC(=O)N(CC(=O)O)[C@@H](Cc2ccccc2)C(=O)O)cc1 (stereo partly shown) [Example 22] | 215 | –
0.43 | 0.55 | N=C(N)Nc1ccc(C(=O)Oc2ccc3c(c2)CCC3CC(=O)N(CC(=O)O)Cc2ccc(CC(=O)O)cc2)cc1 (stereo not shown) [Example 52] | 178 | –
0.2 | 0.14 | N=C(N)Nc1ccc(C(=O)Oc2ccc3c(C(=O)N(CC(=O)O)Cc4cccc(CC(=O)O)c4)cccc3c2)cc1 [Example 42] | 204 | –
0.29 | 0.2 | Cl.N=C(N)Nc1ccc(C(=O)Oc2ccc3c(c2)CCCC3CC(=O)N(CC(=O)O)Cc2cccc(C(=O)O)c2)cc1 (single isomer, unassigned) [Example 6, 3-{[({(1R)-6-[(4-carbamimidamidobenzoyl)oxy]-1,2,3,4-tetrahydronaphthalen-1-yl}acetyl)(carboxymethyl)amino]methyl}benzoic acid or an enantiomer thereof] | – | 1.84
0.36 | 0.44 | C[C@H](C(=O)O)N(Cc1csc(C(=O)O)c1)C(=O)CC1CCc2cc(OC(=O)c3ccc(NC(=N)N)cc3)ccc21 (stereo partly shown) [Example 48] | 179 | –
0.71 | 0.87 | N=C(N)Nc1ccc(C(=O)Oc2ccc3cc(C(=O)N(CC(=O)O)Cc4csc(C(=O)O)c4)sc3c2)cc1 [Example 59] | 164 | –
0.21 | 0.22 | N=C(N)Nc1ccc(C(=O)Oc2ccc3c(C(=O)N[C@@H](Cc4ccc(C(=O)O)cc4)C(=O)O)cccc3c2)cc1 [Example 3, N-{6-[(4-carbamimidamidobenzoyl)oxy]-1-naphthoyl}-4-carboxy-L-phenylalanine monohydrochloride] | 209 | –
0.37 | 0.45 | N=C(N)Nc1ccc(C(=O)Oc2ccc3c(c2)CCC3CC(=O)N(CC(=O)O)Cc2csc(C(=O)O)c2)cc1 (stereo not shown) [Example 49] | 207 | –
0.33 | 0.31 | N=C(N)Nc1ccc(C(=O)Oc2ccc3c(C(=O)N(CC(=O)O)Cc4cccc(C(=O)O)c4)csc3c2)cc1 [Example 60] | 226 | –
1.5 | 1.7 | N=C(N)Nc1ccc(C(=O)Oc2ccc3c(CC(=O)N(CC(=O)O)Cc4cccc(C(=O)O)c4)coc3c2)cc1 [Example 12] | – | –
0.3 | 0.26 | C[C@H](C(=O)O)N(Cc1csc(C(=O)O)c1)C(=O)CC1CCCc2cc(OC(=O)c3ccc(NC(=N)N)cc3)ccc21 (single isomer, unassigned) [Example 7, 4-({({(1R)-6-[(4-carbamimidamidobenzoyl)oxy]-1,2,3,4-tetrahydronaphthalen-1-yl}acetyl) [(1R)-1-carboxyethyl]amino}methyl)thiophene-2-carboxylic acid or an epimer at position 1 of the 1,2,3,4-tetrahydronaphthalene] | 183 | –
0.32 | 0.35 | N=C(N)Nc1ccc(C(=O)Oc2ccc3c(c2)CCCC3CC(=O)N(CC(=O)O)Cc2csc(C(=O)O)c2)cc1 (stereo not shown) [Example 27] | 198 | –
0.14 | 0.24 | N=C(N)Nc1ccc(C(=O)Oc2ccc3cc(C(=O)N(CC(=O)O)Cc4ccc(CC(=O)O)cc4)ccc3c2)cc1 [Example 16] | 239 | –
0.28 | 0.43 | N=C(N)Nc1ccc(C(=O)Oc2ccc3c(c2)CCC3CC(=O)N(CCC(=O)O)Cc2csc(C(=O)O)c2)cc1 (stereo not shown) [Example 50] | 156 | –
0.26 | 0.29 | N=C(N)Nc1ccc(C(=O)Oc2ccc3c(C(=O)N[C@@H](Cc4ccc(C(=O)O)cc4)C(=O)O)csc3c2)cc1 [Example 47] | 191 | –
0.31 | 0.41 | N=C(N)Nc1ccc(C(=O)Oc2ccc3cc(C(=O)N(CC(=O)O)Cc4csc(C(=O)O)c4)ccc3c2)cc1 [Example 1, 4-{[{6-[(4-carbamimidamidobenzoyl)oxy]-2-naphthoyl}(carboxymethyl)amino]methyl}thiophene-2-carboxylic acid monohydrochloride] | 200 | –
0.26 | 0.28 | N=C(N)Nc1ccc(C(=O)Oc2ccc3c(c2)CCCC3CC(=O)N[C@@H](Cc2ccc(C(=O)O)cc2)C(=O)O)cc1 (stereo partly shown) [Example 36] | 190 | –
0.38 | 0.4 | N=C(N)Nc1ccc(C(=O)Oc2ccc3c(c2)CCCC3CC(=O)N(CCc2ccc(C(=O)O)cc2)CC(=O)O)cc1 (stereo not shown) [Example 28] | 154 | –
0.47 | 0.77 | N=C(N)Nc1ccc(C(=O)Oc2ccc3c(c2)CCC(C(=O)N(CC(=O)O)Cc2ccc(CC(=O)O)cc2)C3)cc1 (stereo not shown) [Example 20] | 223 | –
0.23 | 0.26 | N=C(N)Nc1ccc(C(=O)Oc2ccc3cc(C(=O)N(CC(=O)O)Cc4cccc(C(=O)O)c4)ccc3c2)cc1 [Example 14] | 179 | –
0.18 | 0.16 | N=C(N)Nc1ccc(C(=O)Oc2ccc3cc(C(=O)N(CC(=O)O)Cc4ccc5sc(C(=O)O)cc5c4)ccc3c2)cc1 [Example 33] | 139 | –
0.37 | 0.42 | N=C(N)Nc1ccc(C(=O)Oc2ccc3c(c2)CCC(C(=O)N[C@@H](Cc2ccc(C(=O)O)cc2)C(=O)O)C3)cc1 (stereo partly shown) [Example 35] | 159 | –
0.68 | 0.74 | N=C(N)Nc1ccc(C(=O)Oc2ccc3c(c2)CCC(C(=O)N(CC(=O)O)Cc2cccc(C(=O)O)c2)C3)cc1 (stereo not shown) [Example 58] | 218 | –
0.22 | 0.27 | N=C(N)Nc1ccc(C(=O)Oc2ccc3c(C(=O)N(CC(=O)O)Cc4ccc(CC(=O)O)cc4)cccc3c2)cc1 [Example 17] | 270 | –
0.19 | 0.38 | N=C(N)Nc1ccc(C(=O)Oc2ccc3c(C(=O)N(CC(=O)O)Cc4csc(C(=O)O)c4)cccc3c2)cc1 [Example 57] | 225 | –
0.29 | 0.48 | C[C@H](C(=O)O)N(Cc1csc(C(=O)O)c1)C(=O)c1cccc2cc(OC(=O)c3ccc(NC(=N)N)cc3)ccc12 [Example 18] | 218 | –
1.2 | 1.4 | N=C(N)Nc1ccc(C(=O)Oc2ccc3c(c2)OCC3CC(=O)N(CC(=O)O)Cc2cccc(C(=O)O)c2)cc1 (stereo not shown) [Example 10] | – | –

From US9969709B2, “Guanidinobenzoic acid ester compound” (Takeda Pharmaceutical Company Limited, priority 2013, dated 2018)
